Source: ChEMBL document CHEMBL4390635, “α-Glucosidase inhibition activity and in silico study of 2-(benzo[d][1,3]dioxol-5-yl)-4H-chromen-4-one, a synthetic derivative of flavone” (Bioorg Med Chem, 2019)
Active and inactive are the calls of the source. No cut-off for these calls is given here.

What was measured:
Saccharomyces cerevisiae [1] = experiment: Inhibition of Saccharomyces cerevisiae alpha-glucosidase at 3.54 uM incubated for 30 mins before pNPG substrate addition and measured after 10 mins by spectrophotometry relative to untreated control
Saccharomyces cerevisiae [2] = experiment: Inhibition of Saccharomyces cerevisiae alpha-glucosidase incubated for 30 mins before pNPG substrate addition and measured after 10 mins by spectrophotometry
Saccharomyces cerevisiae [3] = experiment: Non-competitive inhibition of Saccharomyces cerevisiae alpha-glucosidase assessed as substrate Km incubated for 15 mins before pNPG substrate addition and measured for 180 secs by spectrophotometry based Michaelis-Menten equation and Lineweaver-Burk plot analysis
Saccharomyces cerevisiae [4] = experiment: Inhibition of Saccharomyces cerevisiae alpha-glucosidase at 27.62 uM incubated for 30 mins before pNPG substrate addition and measured after 10 mins by spectrophotometry relative to untreated control
Saccharomyces cerevisiae [5] = experiment: Non-competitive inhibition of Saccharomyces cerevisiae alpha-glucosidase assessed as substrate Vmax incubated for 15 mins before pNPG substrate addition and measured for 180 secs by spectrophotometry based Michaelis-Menten equation and Lineweaver-Burk plot analysis
Saccharomyces cerevisiae [6] = experiment: Inhibition of Saccharomyces cerevisiae alpha-glucosidase at 669.57 uM incubated for 30 mins before pNPG substrate addition and measured after 10 mins by spectrophotometry relative to untreated control
Saccharomyces cerevisiae [7] = experiment: Competitive inhibition of Saccharomyces cerevisiae alpha-glucosidase incubated for 30 mins before pNPG substrate addition and measured after 10 mins by spectrophotometry based Michaelis-Menten equation and Lineweaver-Burk plot analysis
Alpha glucosidase = Alpha glucosidase (Homo sapiens, UniProt O43451+P10253+P14410+Q2M2H8); experiment: Inhibition of alpha-glucosidase (unknown origin) incubated for 20 mins before pNPG substrate addition and measured after 30 mins by UV spectrometry; format: protein assay

O=c1cc(-c2ccc3c(c2)OCO3)oc2ccccc12
inhibition (Saccharomyces cerevisiae [1]): 8.4%
inhibition (Saccharomyces cerevisiae [2]): Dose-dependent effect
Km (Saccharomyces cerevisiae [3]): 71.4 µM⁻¹
inhibition (Saccharomyces cerevisiae [4]): 99.3%
Vmax (Saccharomyces cerevisiae [5]): 0.028 µmol/min

C[C@H]1O[C@H](O[C@H]2[C@H](O)[C@@H](O)[C@@H](O[C@H]3[C@H](O)[C@@H](O)C(O)O[C@@H]3CO)O[C@@H]2CO)[C@H](O)[C@@H](O)[C@@H]1N[C@H]1C=C(CO)[C@@H](O)[C@H](O)[C@H]1O (some centres undefined)
inhibition (Saccharomyces cerevisiae [6]): 97.7%
inhibition (Saccharomyces cerevisiae [7]): Active

Cc1cc(=O)oc2c(O)c(O)ccc12 [4-METHYLDAPHNETIN]
IC50 (Alpha glucosidase): 52 µM

H-RVPSLM-OH
IC50 (Alpha glucosidase): 23.07 µM
